From patent publication US11376264B2, “Use of bromodomain-containing protein 9 antagonists in combination with vitamin D receptor agonists in diabetes treatment” (Salk Institute for Biological Studies, priority 2017, dated 2022)
“Also recorded” adds a separate entry of the source.

Columns and labels:
human islets = test: Human islets under cytokine stress, transmission electron microscopy; assay type: cell-based; conditions: 24 hours
Method: (§1) Mouse pancreatic islets were isolated as previously described (Yoshihara et al., 2010, Nat. Commun 1:127) with slight modification. Briefly, 0.5 mg/ml collagenase P (Roche REF 1213873001, diluted in HBSS buffer, GIBCO, 14170-112) was injected through the common bile duct, and the perfused pancreas dissected and incubated at 37° C. for 21 min. Digested exocrine cells and intact islets were separated via centrifugation (900×g for 15 min) over Histopaque-1077 (Sigma, H8889), and intact islets were manually selected. Human islets were provided by the Integrated Islets Distribution Program (see details below).
Islets in suspension were pelleted in 2% low melting point agarose and subsequently fixed in 2.5% glutaraldehyde with 2% paraformaldehyde in 0.15M cacodylate buffer containing 2 mM calcium chloride, pH 7.4, for one hour at 4° C. The pellet was trimmed down to contain the minimal amount of agarose possible, washed in buffer, and secondarily fixed in 1% osmium tetroxide/0.3% potassium ferrocyanide in buffer. Subsequently, the pellet was washed in water and en bloc stained with 2% uranyl acetate followed by a graded dehydration in ethanol (35%, 50%, 70%, 90%, 100%, 100%). […]

Nfkbia (IκBα) = test: Nfkbia expression in IL1β-stressed INS1 cells (qPCR); assay type: cell-based, rat
Method: Samples were run in triplicate and expression was normalized to the levels of the housekeeping controls Rplp0 (36b4) for human and mouse. Samples were analyzed by qPCR, using SYBR Green dye (Bio-rad). Statistical comparisons were made using Student's t test. Error bars are mean±SEM. Primers used are shown below: INS1 cells were cultured at 37° C. in 5% C02 in air in RPMI-1640 (Sigma Aldrich) supplemented with 10% (v/v) fetal bovine serum, 1% (v/v) Antibiotic-Antimycotic (Gibco) 10 mM HEPES, 2 mM glutamax, 1 mM sodium pyruvate, and 50 μM β-mercaptoethanol (RPMI for INS1 medium). INS1 cells were transfected with Lipofectamine RNAiMAX (Invitrogen) for 24 hr, […] (VDR: L-097753-02-0005, PCAF: L-085879-02-0005, BAF180: L-088113-02-0005, non-targeting pool: D-001810-10-05).

mouse islets = test: Isolated mouse islets cultured with IL1β ± Cal (RNA-Seq); assay type: cell-based
Method: Total RNA was isolated from tissue or cell pellets using the RNA mini kit (Qiagen). Sequencing libraries were prepared from 100-500 ng total RNA using the TruSeq RNA Sample Preparation Kit v2 (Illumina) according to the manufacturer's protocol. Briefly, mRNA was purified, fragmented, and used for first-, then second-strand cDNA synthesis followed by adenylation of 3′ ends. Samples were ligated to unique adapters and subjected to PCR amplification. Libraries were then validated using the 2100 BioAnalyzer (Agilent), normalized, and pooled for sequencing. RNA-Seq libraries prepared from two biological replicates for each experimental condition were sequenced on the Illumina HiSeq 2000 using bar-coded multiplexing and a 100 bp read length.
Image analysis and base calling were performed with Illumina CASAVA-1.8.2. This yielded a median of 29.9M usable reads per sample. Short read sequences were mapped to a UCSC mm9 reference sequence using the RNA-seq aligner STAR (Dobin et al., 2013). Known splice junctions from mm9 were supplied to the aligner and de novo junction discovery was also permitted. Differential gene expression analysis, statistical testing and annotation were performed using Cuffdiff 2 (Trapnell et al., 2013). Transcript expression was calculated as gene-level relative abundance in fragments per kilobase of exon model per million mapped fragments and employed correction for transcript abundance bias (Roberts et al., 2011). RNA-Seq results for genes of interest were also explored visually using the UCSC Genome Browser.
as §1, with “Human islets were provided by the Integrated Islets Distribution Program (see details below).” left out

[1] = test system: BAF/PBAF complex binding at Nfkbia, Nfkbiz, Camk4; test: ChIP-qPCR of ARID1B and BAF180 at VDR target loci; assay type: cell-based, rat
Excerpt: The experimental procedure for ChIP was as previously described (Barish et al., 2010, Genes Dev 24:2760-5). Briefly, after fixation, nuclei from were isolated, lysed, and sheared with a Diagenode Bioruptor to yield DNA fragment sizes of 200-1,000 bp followed by immunoprecipitation.

VDR-BRD9 interaction = molecular target: T1, VDR-BRD9 interaction (Homo sapiens, UniProt P11473+Q9H8M2); test: Co-immunoprecipitation of VDR and BRD9 in 293T cells; assay type: cell-based; conditions: proteomic and Western blot
T1 construct: endogenous BRD9 co-immunoprecipitates with HA-tagged VDR; expressed in transfected cells; host or cells: 293T
T1 sequence (P11473 1-427): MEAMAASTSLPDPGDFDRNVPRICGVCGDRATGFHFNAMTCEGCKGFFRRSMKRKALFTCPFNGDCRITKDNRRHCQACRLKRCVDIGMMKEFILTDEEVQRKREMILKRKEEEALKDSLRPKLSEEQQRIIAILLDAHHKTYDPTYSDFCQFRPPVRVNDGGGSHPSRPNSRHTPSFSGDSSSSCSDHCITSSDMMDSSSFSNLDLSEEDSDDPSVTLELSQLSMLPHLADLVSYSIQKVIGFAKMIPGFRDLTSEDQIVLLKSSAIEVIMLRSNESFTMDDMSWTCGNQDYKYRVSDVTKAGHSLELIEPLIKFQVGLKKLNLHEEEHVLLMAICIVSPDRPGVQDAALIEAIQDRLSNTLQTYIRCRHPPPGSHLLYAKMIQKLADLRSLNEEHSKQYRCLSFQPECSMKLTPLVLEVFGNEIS
T1 sequence (Q9H8M2 1-597): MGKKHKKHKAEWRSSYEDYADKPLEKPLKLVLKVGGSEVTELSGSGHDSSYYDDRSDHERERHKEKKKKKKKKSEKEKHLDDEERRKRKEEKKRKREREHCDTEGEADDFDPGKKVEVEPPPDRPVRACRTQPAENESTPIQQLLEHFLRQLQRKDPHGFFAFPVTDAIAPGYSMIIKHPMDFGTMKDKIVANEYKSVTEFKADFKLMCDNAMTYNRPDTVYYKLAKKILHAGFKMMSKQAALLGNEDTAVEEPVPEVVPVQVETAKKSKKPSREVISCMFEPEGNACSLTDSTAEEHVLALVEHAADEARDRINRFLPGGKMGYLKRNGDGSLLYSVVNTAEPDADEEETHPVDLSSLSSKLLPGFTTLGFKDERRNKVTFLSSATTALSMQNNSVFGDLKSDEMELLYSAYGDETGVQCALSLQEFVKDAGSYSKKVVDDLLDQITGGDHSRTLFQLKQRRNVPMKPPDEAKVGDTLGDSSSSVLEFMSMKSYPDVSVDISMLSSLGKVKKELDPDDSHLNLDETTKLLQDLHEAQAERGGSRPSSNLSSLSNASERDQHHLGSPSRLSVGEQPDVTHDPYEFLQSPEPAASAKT
Method: Briefly, cells are lysed using ice-cold lysis buffer (HEPES 20 mM pH8, EDTA 0.2 mM, NaCl 0.3 mM, NP40 0.5%, 15% glycerol) for 15 min, and after centrifuging the supernatant was collected. For HA- or Flag-tagged proteins, immunoprecipitations were performed using HA-magnetic beads (Pierce, P188836), or Flag-magnetic beads (Sigma, M8823) for 1.5 hr at 4° C. For other immunoprecipitations, primary antibodies were incubated with lysates for 2 hr followed by Protein A magnetic beads (Life Technologies, 10001D). After 3 washes with wash buffer (HEPES 10 mM pH8, EDTA 0.2 mM, NaCl 0.3 mM, NP40 0.1%, 15% glycerol), the beads were boiled with NuPage LDS sample buffer and the lysates were stored at −20° C.

| SMILES | cytokine-induced morphological degeneration (insulin granules, ER) (human islets) | Nfkbia expression (Nfkbia (IκBα); 30 minutes IL1β exposure) | Nfkbia expression (Nfkbia (IκBα); IL1β stress, after 24 hrs) | IL1β-induced damage / gene expression changes in islets (mouse islets; 48 or 96 hours) | number of genes induced by IL1β and rescued (mouse islets; 96 hours) | number of genes suppressed by IL1β and rescued (mouse islets; 96 hours) | ARID1B (BAF complex) binding at target gene loci [1] | BAF180 (PBAF complex) binding at target gene loci [1] | interaction between VDR and BRD9 (VDR-BRD9 interaction) |
| --- | --- | --- | --- | --- | --- | --- | --- | --- | --- |
| C=C1/C(=C\C=C2/CCC[C@]3(C)[C@@H]([C@H](C)/C=C/[C@@H](O)C4CC4)CC[C@@H]23)C[C@@H](O)C[C@@H]1O [Cal, calcipotriol] | partially rescues the morphological degeneration | increased | not sufficient to induce a significant increase | protected islets from IL1β-induced damage; also recorded: partially rescued | 332 genes | 169 genes |  |  |  |
| CCn1cc(-c2cccc(C(F)(F)F)c2)c2sc(C(=N)NC3CCS(=O)(=O)CC3)cc2c1=O [iBRD9] |  |  |  |  |  |  | reduces BAF complex binding | increases PBAF complex binding | reduced the interaction between VDR and BRD9 |
